Results from patent US20240383908A1, “SYNTHESIS AND APPLICATION OF PHOSPHATASE DEGRADER” (HINOVA PHARMACEUTICALS INC., priority 2021, published 2024).

What was measured:
SHP2 protein [1] = target: T1, SHP2 protein (Homo sapiens, UniProt Q06124); assay: Degradation activity on SHP2 protein in MV-411 cells (Western blot, DC50); assay type: cell-based; design: endogenous in cells; settings: MV411 cells, 24 hours, read-out: Degradation activity for differenct cell lines MV411 (DC50)
T1 sequence (Q06124 1-593): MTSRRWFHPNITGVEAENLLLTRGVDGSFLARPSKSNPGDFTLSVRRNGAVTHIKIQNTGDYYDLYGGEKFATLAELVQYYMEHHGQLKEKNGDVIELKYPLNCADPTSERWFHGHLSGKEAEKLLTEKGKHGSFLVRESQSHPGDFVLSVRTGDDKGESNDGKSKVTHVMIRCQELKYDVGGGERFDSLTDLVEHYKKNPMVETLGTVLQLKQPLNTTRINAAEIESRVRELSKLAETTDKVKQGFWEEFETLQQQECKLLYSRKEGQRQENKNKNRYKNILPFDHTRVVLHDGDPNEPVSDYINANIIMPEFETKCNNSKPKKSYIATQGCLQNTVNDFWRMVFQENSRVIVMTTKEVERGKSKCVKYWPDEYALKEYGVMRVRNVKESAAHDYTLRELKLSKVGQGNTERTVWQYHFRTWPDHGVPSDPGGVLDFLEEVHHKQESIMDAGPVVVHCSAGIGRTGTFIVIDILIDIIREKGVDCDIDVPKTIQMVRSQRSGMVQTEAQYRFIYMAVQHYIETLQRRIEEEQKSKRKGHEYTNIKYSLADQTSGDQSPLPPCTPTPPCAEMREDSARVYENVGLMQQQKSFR
Procedure, shortened: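 MV-411 cells (1×10^6 cells/well, IMDM + 10% FBS) were treated 24 h with compound at 0.1-100 nM final, 0.1% DMSO, duplicates. SHP2 measured by Western blot against GAPDH, band density normalised to DMSO control; DC50 from dose-response fit.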

SHP2 protein [2] = target: T1, SHP2 protein; assay: Degradation activity on SHP2 protein in MIA Paca-2 cells (Western blot, DC50); assay type: cell-based; design: endogenous in cells; host or cells: MIA Paca-2 cells; settings: read-out: Degradation activity for differenct cell lines MIA Paca-2 (DC50)
Procedure, shortened: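 Cells were treated 24 h at 37 °C with compound (0.1–100 nM final, 0.1% DMSO). SHP2 was measured by Western blot with GAPDH as loading control, densitometry normalized to DMSO (100%). DC50, the concentration giving 50% degradation, came from a dose-response fit.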

Structure (SMILES)	DC50 (SHP2 protein [1]) [nM]	DC50 (SHP2 protein [2]) [nM]
CC1(N)CCN(c2cnc(Sc3cccc(NC(=O)CCCCCCCCN4CCN(c5ccc(C(=O)NCc6ccc7c(c6)CN(C6CCC(=O)NC6=O)C7=O)nn5)CC4)c3)cn2)CC1 (stereo not drawn) [Compound 63]	< 100	< 100
CC1(N)CCN(c2cnc(Sc3cccc(NC(=O)CCCCCCCCN4C5CCC4CN(c4ccc(C(=O)NCc6ccc7c(c6)CN(C6CCC(=O)NC6=O)C7=O)nn4)C5)c3)cn2)CC1 (stereo not drawn) [Compound 119]	< 100	< 100
CCC1(N)CCN(c2cnc(Sc3cccc(NC(=O)CCCCCCN4CC5(CCN(c6ccc(C(=O)NCc7ccc8c(c7)CN(C7CCC(=O)NC7=O)C8=O)nn6)C5)C4)c3)cn2)CC1 (stereo not drawn) [Compound 161]	< 100	< 100
NC1(CO)CCN(c2cnc(Sc3cccc(NC(=O)CCCCCCN4CC5(CCN(c6ccc(C(=O)NCc7ccc8c(c7)CN(C7CCC(=O)NC7=O)C8=O)nn6)C5)C4)c3)cn2)CC1 (stereo not drawn) [Compound 168]	< 100	< 100
CC1(N)CCN(c2cnc(Sc3cccc(NC(=O)CCCCCCCCN4CCN(c5ccc(C(=O)NCc6ccc7c(c6)CN(C6CCC(=O)NC6=O)C7=O)nn5)CC4C(F)(F)F)c3)cn2)CC1 (stereo not drawn) [Compound 174]	< 100	< 100
Cc1ncsc1-c1ccc([C@H](C)NC(=O)[C@@H]2C[C@@H](O)CN2C(=O)[C@@H](NC(=O)CCCCCCCCN2CCN(C(=O)CCC(=O)Nc3cccc(Sc4ncc(N5CCC(C)(N)CC5)nc4N)c3Cl)CC2)C(C)(C)C)cc1 [Compound 999]	< 100	< 100
